Test results reported in patent US6372768B1, “2-aminopyridines containing fused ring substituents” (Pfizer INC, priority 1999, dated 2002).
Structures can show the parent of a compound that is named as a salt.

melting point	SMILES
170 to 172 °C	Nc1cccc(-c2ccc(OCCO)c3c2CCCC3)n1 (as salt: hydrochloride) [Example 2, 6-[4-(2-Hydroxy-ethoxy)-5,6,7,8-tetrahydro-naphthalen-1-yl]-pyridin-2-ylamine]
60 to 75 °C (dec.)	CN(C)CCOCCOc1ccc(-c2cccc(N)n2)c2ccccc12 (as salt: hydrochloride) [Example 3, 6-[4-(2-(2-Dimethylaminoethoxy)-ethoxy)-naphthalen-1-yl]-pyridin-2-ylamine]
